According to the NIST ThermoML archive (doi:10.1021/je049585t):

Experiment: molar heat capacity at constant pressure
Conditions: 101.33 kPa, Crystal

CC1=CCC2C(=O)OC(=O)C2C1 (configuration not stated) [4-methyl-cyclohex-4-ene-1, 2-dicarboxylic acid anhydride]
Conditions	molar heat capacity at constant pressure [J/K/mol]
80 K	65.23
80.45 K	63.17
81.95 K	63.26
83.53 K	63.39
85 K	64.37
85.17 K	63.65
86.78 K	64.05
88.38 K	64.45
89.95 K	65.12
90 K	64.76
91.5 K	65.63
93.03 K	66.26
94.54 K	66.83
95 K	66.05
96.03 K	67.49
97.51 K	68.15
98.97 K	68.87
100 K	67.97
100.41 K	69.38
101.84 K	69.93
103.26 K	70.47
104.66 K	71.22
105 K	70.28
106.05 K	71.84
107.43 K	72.36
108.8 K	72.92
110 K	72.81
110.15 K	73.65
111.5 K	74.07
112.83 K	74.66
114.15 K	75.18
115 K	75.44
115.47 K	75.87
116.77 K	76.33
118.07 K	76.91
119.35 K	77.54
120 K	78.06
120.63 K	78.18
121.9 K	78.77
123.16 K	79.3
124.42 K	79.75
125 K	80.62
125.66 K	80.33
126.9 K	80.87
128.14 K	81.35
129.36 K	81.93
130 K	83.08
130.58 K	82.44
131.83 K	82.95
132.96 K	83.78
134.16 K	84.15
135 K	85.43
135.38 K	84.59
136.59 K	85.28
137.72 K	85.94
138.93 K	86.2
140 K	87.67
140.14 K	86.69
141.27 K	86.97
142.48 K	87.65
143.6 K	88.22
144.72 K	88.9
145 K	89.84
145.85 K	89.28
146.98 K	89.92
148.1 K	90.42
149.22 K	90.83
150 K	91.95
150.43 K	91.65
151.55 K	91.97
153.01 K	92.74
154.67 K	93.61
155 K	94.06
156.32 K	94.64
158.04 K	95.26
159.69 K	95.96
160 K	96.19
161.35 K	96.78
162.97 K	97.8
164.62 K	98.83
165 K	98.39
166.25 K	99.65
167.8 K	100.5
169.46 K	101.34
170 K	100.7
171.37 K	102.49
173.61 K	103.54
175 K	103.17
175.85 K	104.8
178.12 K	106.11
180 K	105.81
180.28 K	107.31
182.43 K	108.56
184.61 K	109.77
185 K	108.67
186.68 K	111.17
188.84 K	112.46
190 K	111.75
190.92 K	113.85
192.99 K	115.1
195 K	115.07
195.07 K	116.42
197.13 K	117.72
199.15 K	118.98
200 K	118.62
201.22 K	120.78
203.2 K	121.75
